Experimental data published in PMC9914855, “UHPLC-MS Phenolic Fingerprinting, Aorta Endothelium Relaxation Effect, Antioxidant, and Enzyme Inhibition Activities of Azara dentata Ruiz & Pav Berries” (Foods, 2023).

Experiments:
amylase = settings: cited from earlier work
lipase = settings: cited from earlier work
AChE = biological target: T1, AChE (Homo sapiens, UniProt P22303); settings: cited from earlier work
T1 construct: purchased Merck, Darmstadt, Germany

BChE = biological target: T2, BChE (Homo sapiens, UniProt P06276); settings: cited from earlier work
T2 construct: purchased Merck, Darmstadt, Germany

human erythrocytes = experiment: Lipid peroxidation in human erythrocytes; type: cell-based; settings: at 100 µg/mL
Method: The lipid peroxidation in human erythrocytes (LP) assay was performed as described in a previous study with some modifications. Human blood cells (red) were used. After washing, the cells were suspended in phosphate-buffered saline (hemoglobin density of 1 mM). The final cell suspension with different concentrations of the test compounds was incubated and dissolved in DMSO and PBS for 10 min at 37 °C. After incubation, the cells were added to tert-butylhydroperoxide (1 mM) for 15 min at 37 °C. After this, the lipid peroxidation was obtained via the TBARs’ formation. The evaluation was performed in quadruplicate, and the results are shown as the inhibition percentage (IP) of lipid peroxidation in human erythrocytes (IPLP) contrasted to the control of catechin at 100 µg/mL and reported as the average ± SD. Healthy volunteer donors gave their informed consent for inclusion before participating in the study. The protocol assay was conducted in accordance with the Declaration of Helsinki and is included in the approved project by CICIT-CA-UNSJ-Argentina (Project code 80020190100277SJ, N 0591-20-R-UNSJ), referred to as an ethical and environmental safeguard and to preserve the hygiene and safety conditions in the activities to be carried out in laboratories.

[1] = design: method as in PMID 36552522; settings: read-out: GI50 (cytotoxic); cited from earlier work
[2] = biological target: acetylcholinesterase (AChE); design: method as in PMID 36552522; settings: cited from earlier work
tyrosinase = tyrosinase (Agaricus bisporus, UniProt C7FF04); design: method as in PMID 36552522; settings: cited from earlier work
[3] = biological target: butyrylcholinesterase (BChE); design: method as in PMID 36552522; settings: cited from earlier work

Sequence of tyrosinase (C7FF04 1-392): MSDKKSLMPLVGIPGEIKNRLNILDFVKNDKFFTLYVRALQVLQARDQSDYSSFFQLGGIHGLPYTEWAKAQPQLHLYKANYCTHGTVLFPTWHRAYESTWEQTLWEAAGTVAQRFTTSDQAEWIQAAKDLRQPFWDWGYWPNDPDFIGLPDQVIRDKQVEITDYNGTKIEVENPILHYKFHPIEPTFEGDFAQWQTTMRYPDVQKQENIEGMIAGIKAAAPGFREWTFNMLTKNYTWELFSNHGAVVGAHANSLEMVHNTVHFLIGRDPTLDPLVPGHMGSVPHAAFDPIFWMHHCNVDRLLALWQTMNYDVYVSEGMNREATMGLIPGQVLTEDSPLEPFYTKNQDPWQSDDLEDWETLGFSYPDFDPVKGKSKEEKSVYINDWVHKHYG
T2 sequence (P06276 29-602, species assumed): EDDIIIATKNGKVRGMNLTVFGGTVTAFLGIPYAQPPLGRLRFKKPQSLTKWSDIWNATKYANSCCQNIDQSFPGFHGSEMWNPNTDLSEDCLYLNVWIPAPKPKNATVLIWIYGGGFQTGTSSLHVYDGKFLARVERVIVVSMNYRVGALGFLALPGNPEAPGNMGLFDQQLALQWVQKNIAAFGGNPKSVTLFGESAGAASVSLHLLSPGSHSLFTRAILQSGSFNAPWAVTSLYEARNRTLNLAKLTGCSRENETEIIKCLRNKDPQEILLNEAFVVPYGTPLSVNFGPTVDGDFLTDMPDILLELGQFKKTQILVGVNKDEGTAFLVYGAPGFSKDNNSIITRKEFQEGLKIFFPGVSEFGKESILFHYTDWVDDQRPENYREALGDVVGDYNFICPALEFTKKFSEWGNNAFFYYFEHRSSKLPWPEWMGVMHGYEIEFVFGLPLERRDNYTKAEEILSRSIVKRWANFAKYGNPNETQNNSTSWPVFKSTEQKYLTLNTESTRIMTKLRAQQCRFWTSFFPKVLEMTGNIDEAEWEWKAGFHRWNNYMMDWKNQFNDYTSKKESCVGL
T1 sequence (P22303 32-614): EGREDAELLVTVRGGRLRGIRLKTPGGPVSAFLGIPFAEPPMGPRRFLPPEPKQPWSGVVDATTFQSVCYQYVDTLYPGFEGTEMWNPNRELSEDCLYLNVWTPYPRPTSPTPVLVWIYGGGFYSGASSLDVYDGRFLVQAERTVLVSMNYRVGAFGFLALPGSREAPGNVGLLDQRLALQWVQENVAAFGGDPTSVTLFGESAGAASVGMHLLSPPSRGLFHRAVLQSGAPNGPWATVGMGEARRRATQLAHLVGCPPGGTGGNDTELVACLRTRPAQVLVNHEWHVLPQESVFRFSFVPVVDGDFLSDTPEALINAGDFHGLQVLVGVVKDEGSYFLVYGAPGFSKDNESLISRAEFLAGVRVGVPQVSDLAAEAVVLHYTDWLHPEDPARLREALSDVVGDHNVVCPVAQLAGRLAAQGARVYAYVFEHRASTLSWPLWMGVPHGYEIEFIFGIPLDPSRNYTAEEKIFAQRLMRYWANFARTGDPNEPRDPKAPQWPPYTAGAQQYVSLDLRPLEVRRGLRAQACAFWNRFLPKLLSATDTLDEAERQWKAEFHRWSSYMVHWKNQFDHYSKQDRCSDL

O=C(/C=C/c1ccc(O)c(O)c1)O[C@@H]1C[C@](O)(C(=O)O)C[C@@H](O)[C@H]1O [chlorogenic acid, Chlorogenic acid]
amylase IC50 (amylase): 498 ± 13 µg/mL
lipase IC50 (lipase): 647 µg/mL
IC50 (AChE): 22.6 µM
IC50 (BChE): 17.8 µM

O.Oc1cc(O)c2c(c1)O[C@H](c1ccc(O)c(O)c1)[C@@H](O)C2 [catechin]
IPLP (inhibition percentage of lipid peroxidation in human erythrocytes) (human erythrocytes): 70%

N.N.[Cl][Pt][Cl] [cisplatin, reference compound]
GI50 [1]: 4.9 ± 0.2 µM

CC1=C(CC/C(C)=C/CO)[C@]2(C)CCCC(C)(C)C2CC1 (stereo partly drawn) [ent-labda-8,13-E-diene-15-ol]
GI50 [1]: 4.5 ± 0.1 µM

2-nor-1,2-secolycoserone [2-nor-1,2-secolycoserone coumarin]
AChE inhibition [2]: 1.21 ± 0.03 µg/mL
tyrosinase IC50 (tyrosinase): 103.43 ± 16.86 µg/mL
BChE IC50 [3]: 11.23 ± 0.02 µg/mL
